Experimental data reported in patent publication US9410947B2, “Fluorescent dyes and related methods” (University of Washington through its Center for …, priority 2012, dated 2016).
“Also recorded” adds a separate entry of the source. One block for each molecule: values may come before it.

Columns and labels:
Solubility in solvents = format: physicochemical
Prorocentrum minimum = test: Flow cytometric analysis of DNA staining in alga; format: cell-based; conditions: 1% DMSO
Excerpt: In another aspect, this example describes a set of experiments to investigate DANPY-1 dye for use in flow cytometric analysis of DNA. The alga Prorocentrum minimum was selected for these studies. Several controls were run to: (a) ensure that cell integrity was maintained, (b) assess the contribution of unbound DANPY-1 to fluorescent background signals and (c) determine a dye concentration and the intensity of the fluorescent signal when the target DNA is fully saturated with bound dye. The DANPY-1 concentrations that were tested in these preliminary experiments ranged from 7.1 μM to 228 μM. All of the flow cytometric work was performed on an Accuri C6 flow cytometer (BD Scientific, Ann Arbor, Mich.). The excitation wavelength for the FL1, FL2, and FL3 detectors (or channels) is 488 nm and the FL4 laser excites at a wavelength of 640 nm. The fluorescent wavelengths that each channel detects are as follows: FL1 530/30, FL2 585/40, FL3 670 LP and FL4 675/25. These experiments are summarized below (data not shown): […]

[1] = in chloroform, extrapolated to zero frequency; cited from earlier work
salmon sperm DNA = test: Photometric (colorimetric) titration of dye solutions with DNA, Scatchard / n-K fit; format: binding
Protocol: Dye/DNA binding was assessed. The binding constant and number of dye molecules bound per base pair were assessed by means of photometric titrations (Peacocke, A. R.; Skerrett, J. N. H., Trans. Faraday Soc. 1956, 52, 261, Angerer, L. M.; Moudrianakis, E. N., J. Mol. Bio. 1972, 63, 505-521) of dye solutions with commercially available salmon sperm DNA (Sigma Aldrich, MW 50 kD to 100 kD) in 10 mM TE buffer at pH 7.2. Experiments were run using a temperature-controlled Ocean Optics diode array spectrophotometer at 25.0° C., with 2.5 mL of dye solution at a concentration sufficient for an initial optical density near 0.75, adding 1.5 mM DNA solution in 30 μL aliquots.
This example describes affinity of DANPY-1 to DNA. […] These experiments were analyzed using the Scatchard equation (Scatchard, G., Ann. N.Y. Acad. Sci. 1949, 51, 662-672.) […]
A titration methodology was also used. Dyes were evaluated for their DNA-binding properties by means of colorimetric titrations in buffered aqueous solution (1×TE buffer titrated to pH 7.2 with HCl). […] After allowing the solution to mix for about one minute, the stirrer was stopped and a spectrum was recorded. If the initial absorbance of the dye was ≧1, the dye solution was diluted with the appropriate solvent (TE buffer, methanol, or butanol) until the initial absorbance was <1. […] The reduced absorbance change […]

dsDNA = test: QCM-D binding study, dsDNA layer; design: species or system salmon; conditions: pH 7.2 1×TE buffer, 298 K, 0.3 mL/min, rinse ten minutes
Excerpt: (§1) In yet another aspect, the present disclosure includes methods for quantifying nucleic acid molecules in a sample. For example, the present disclosure can include a method of determining a quantity of a nucleic acid molecule in a sample using the Quartz Crystal Microbalance with Dissipation Monitoring (QCM-D) method. QCM-D can be used to determine the formation of films (e.g., nm in thickness). For example, films may be formed on a surface from proteins, polymers, surfactants and cells. QCM-D can detect films formed in liquid and may be used to determine binding kinetics of, for example, cationic dyes (e.g., ethidium bromide, DANPY-1 and/or DAST). For example, a Q-Sense instrument (e.g., a Q-Sense E4 instrument, Biolin Scientific AB, Stockholm) can be used for QCM-D using a dedicated set of QCM sensors (e.g., SiO2-coated). The procedures of cleaning, deposition, mass monitoring, and preparing nucleic acid for QCM-D are known. (R. J. Rawle, C. R. D. Selassie, M. S. Johal, Langmuir 2007, 23, 9563-9566). Data can be output as kinetics that can include structural changes and mass changes. The crystals can be, for example, coated with a polyethylene imine (PEI) layer to enable binding of anionic nucleic acids. The crystals can be, for example, coated with a polymer polystyrene sulfonate (PSS), that only undergoes loose electrostatic binding. […]

tRNA = test: QCM-D binding study, tRNA layer; conditions: pH 7.2 1×TE buffer, 298 K, 0.3 mL/min, rinse ten minutes
Excerpt: as §1

[2] = QCM-D binding study, bare SiO2 control; conditions: pH 7.2 1×TE buffer, 298 K
Excerpt: as §1

ssDNA = test: QCM-D binding study, ssDNA layer; design: species or system salmon; conditions: pH 7.2 1×TE buffer, 298 K, 0.3 mL/min, rinse ten minutes
Excerpt: as §1

[3] = QCM-D binding study, PEI layer
Excerpt: The three nucleic acids (e.g., single-stranded DNA (ssDNA), double-stranded DNA (dsDNA), and transfer RNA (tRNA)) used in this example are anionic. The crystals were coated with a polyethylene imine (PEI) layer to create a surface and enable binding of the nucleic acids. […] Polystyrene sulfonate (PSS) was used as a control polymer. As controls, PSS which can only undergo loose electrostatic binding, and bare SiO2 were used. Any materials used for coating were allowed to deposit until a stable mass was reached (e.g., for five minutes) followed by five minutes of rinsing with buffer between each layer; (1) PEI or PSS, (2) nucleic acid and (3) the dye. After deposition, the film was rinsed with buffer for ten minutes. If the adsorbed mass returned to near the form immediately prior to the addition of the dye, then remained stable, the binding was characterized as reversible. Binding was characterized as irreversible if the mass remained constant after rinsing or leveled off at a substantially higher value than before the dye was added.

[4] = QCM-D binding study, PSS control polymer; conditions: pH 7.2 1×TE buffer, 298 K
Excerpt: as §1

solubility in standard spin-coating solvents (Solubility in solvents; TCE and cyclopentanone): poorly soluble | solubility in butanol (Solubility in solvents; butanol): poorly soluble | solubility in lower alcohols (Solubility in solvents; methanol, ethanol, and n-propanol): highly soluble | cell concentration (Prorocentrum minimum; 7.1 μM dye, 10 minute exposure): 1.02e5 cells/mL | impact on cell integrity (Prorocentrum minimum; 7.1 μM dye, 10 minute exposure): no impact on cell integrity | cell concentration (Prorocentrum minimum; 57 μM dye, 10 minute exposure): 9.5e4 cells/mL | impact on cell integrity (Prorocentrum minimum; 57 μM dye, 10 minute exposure): no impact on cell integrity | mean FU intensity FL-1 channel (Prorocentrum minimum; 57 μM dye, FL1 530/30, ex 488 nm): 17951 FU | mean FU intensity FL-2 channel (Prorocentrum minimum; 57 μM dye, FL2 585/40, ex 488 nm): 167481 FU | cell concentration (Prorocentrum minimum; 228 μM dye, 10 min exposure): 8.1e4 cells/mL | impact on cell integrity (Prorocentrum minimum; 228 μM dye, 10 min exposure): some impact on cell integrity
Molecule: CC(=O)[O-].CN(C)c1ccc2cc(-c3cc[n+](C)cc3)ccc2c1 [DANPY-1, dimethylaminonaphthylpyridinium]
mean fluorescent intensity FL-1 channel (Prorocentrum minimum; 7.1 μM dye, FL1 530/30, ex 488 nm): 6032 | mean fluorescent intensity FL-2 channel (Prorocentrum minimum; 7.1 μM dye, FL2 585/40, ex 488 nm): 40801 | mean fluorescent intensity FL-1 channel (Prorocentrum minimum; 228 μM dye, FL1 530/30, ex 488 nm): 26131 | mean fluorescent intensity FL-2 channel (Prorocentrum minimum; 228 μM dye, FL2 585/40, ex 488 nm): 412988

solubility in water (Solubility in solvents; water): not sufficiently soluble
Molecule: CCN(CCO)c1ccc(N=Nc2ccc([N+](=O)[O-])cc2)cc1 [DR1, Disperse Red 1]
static hyperpolarizability βzzz(0) [1]: 54±5 10^−30 esu | change in the absorbance peak on titration with DNA (salmon sperm DNA; 1:1 TE buffer and ethanol): no substantial change in the absorbance peak

Molecule: trans-4-[4-(Dimethylamino)styryl]-1-methylpyridinium toluenesulfonate [DAST]
QCM-D binding to dsDNA (dsDNA): did not interact strongly and None | QCM-D binding to tRNA (tRNA): did not interact strongly; also recorded: Reversible | shift in absorbance maximum upon addition of DNA (salmon sperm DNA; TE buffer): exhibited a shift in absorbance maximum | QCM-D binding to SiO2 [2]: Reversible | QCM-D binding to ssDNA (ssDNA): interacted strongly; also recorded: Irreversible | QCM-D binding to PEI layer [3]: did not bind | QCM-D binding to PSS [4]: interacted strongly; also recorded: Partially
